Measurements from ChEMBL document CHEMBL1135808, “A new type of mixed anhydride and its applications to the synthesis of 7-substituted 8-chloro-5,5-dioxoimidazo[1,2-b][1,4,2]benzodithiazines with in vitro antitumor activity” (2002).

Assays:
SF-268 = assay: In vitro growth inhibition against CNS cancer SF-268 cell line was reported.; format: functional; conditions: Homo sapiens
HCT-15 [1] = assay: In vitro total growth inhibition against colon cancer HCT-15 cell lines was reported.; format: functional; conditions: Homo sapiens, read-out: Log TGI (converted)
DU-145 [2] = assay: Log of molar concentration leading to 50% cell death against prostate cancer […] cell line was reported; format: functional; conditions: Homo sapiens, read-out: Log LC50 (the source's name) (converted)
A498 [3] = assay: In vitro total growth inhibition against renal cancer A-498 cell lines was reported.; format: functional; conditions: Homo sapiens, read-out: Log TGI (converted)
OVCAR-8 [4] = assay: In vitro total growth inhibition against ovarian cancer OVCAR-8 cell lines was reported.; format: functional; conditions: Homo sapiens, read-out: Log TGI (converted)
NCI-H23 = assay: In vitro growth inhibition against non-small-cell lung cancer NCI-H23 cell line was reported.; format: functional; conditions: Homo sapiens
HOP-62 [5] = assay: Log of molar concentration leading to 50% cell death against non-small-cell lung cancer HOP-62 cell line was reported; format: functional; conditions: Homo sapiens, read-out: Log LC50 (the source's name) (converted)
HOP-62 [6] = assay: In vitro growth inhibition against non-small-cell lung cancer HOP-62 cell line was reported.; format: functional; conditions: Homo sapiens
UACC-257 = assay: In vitro total growth inhibition against melanoma UACC-257 cell lines was reported.; format: functional; conditions: Homo sapiens, read-out: Log TGI (converted)
UO-31 = assay: In vitro growth inhibition against renal cancer UO-31 cell line was reported.; format: functional; conditions: Homo sapiens
LOX IMVI = assay: In vitro growth inhibition against melanoma LOX IMVI cell line was reported.; format: functional; conditions: Homo sapiens
SK-MEL-28 [7] = assay: In vitro growth inhibition against melanoma SK-MEL-28 cell line was reported.; format: functional; conditions: Homo sapiens
SW-620 [8] = assay: In vitro growth inhibition against colon cancer SW620 cell line was reported.; format: functional; conditions: Homo sapiens
NCI-H46 = assay: In vitro total growth inhibition against non-small-cell lung cancer […] cell lines was reported.; format: functional; conditions: Homo sapiens, read-out: Log TGI (converted)
SNB-19 = assay: In vitro growth inhibition against CNS cancer SNB-19 cell line was reported.; format: functional; conditions: Homo sapiens
OVCAR-8 [9] = assay: In vitro growth inhibition against ovarian cancer OVCAR-8 cell line was reported.; format: functional; conditions: Homo sapiens
HCC 2998 [10] = assay: In vitro growth inhibition against colon cancer HCC2998 cell line was reported.; format: functional; conditions: Homo sapiens
IGROV-1 [11] = assay: Log of molar concentration leading to 50% cell death against ovarian cancer IGROV1 cell line was reported; format: functional; conditions: Homo sapiens, read-out: Log LC50 (the source's name) (converted)
NCI-H522 [12] = assay: In vitro growth inhibition against non-small-cell lung cancer […] cell line was reported.; format: functional; conditions: Homo sapiens
MDA-MB-231 [13] = assay: In vitro total growth inhibition against breast cancer MDA-MB-231/ATCC cell lines was reported.; format: functional; conditions: Homo sapiens, read-out: Log TGI (converted)
OVCAR-4 = assay: Log of molar concentration leading to 50% cell death against ovarian cancer OVCAR-4 cell line was reported; format: functional; conditions: Homo sapiens, read-out: Log LC50 (the source's name) (converted)
DU-145 [14] = assay: In vitro growth inhibition against prostate cancer […] cell line was reported.; format: functional; conditions: Homo sapiens
NCI-H226 [15] = assay: In vitro total growth inhibition against non-small-cell lung cancer NCI-H226 cell lines was reported.; format: functional; conditions: Homo sapiens, read-out: Log TGI (converted)
BT-549 = assay: In vitro total growth inhibition against breast cancer BT 549 cell line was reported.; format: functional; conditions: Homo sapiens, read-out: Log TGI (converted)
IGROV-1 [16] = assay: In vitro total growth inhibition against ovarian cancer IGROV1 cell lines was reported.; format: functional; conditions: Homo sapiens, read-out: Log TGI (converted)
MDA-MB-435 [17] = assay: In vitro growth inhibition against breast cancer MDA-MB-435 cell line was reported.; conditions: Homo sapiens
Malme-3M = assay: In vitro growth inhibition against melanoma MALME 3M cell line was reported.; format: functional; conditions: Homo sapiens
HCT-15 [18] = assay: In vitro growth inhibition against colon cancer […] cell line was reported.; format: functional; conditions: Homo sapiens
UACC-62 = assay: In vitro total growth inhibition against melanoma UACC-62 cell lines was reported.; format: functional; conditions: Homo sapiens, read-out: Log TGI (converted)
COLO 205 [19] = assay: In vitro growth inhibition against colon cancer COLO 205 cell line was reported.; format: functional; conditions: Homo sapiens
HT-29 [20] = assay: In vitro growth inhibition against colon cancer HT-29 cell line was reported.; format: functional; conditions: Homo sapiens
SW-620 [21] = assay: In vitro total growth inhibition against colon cancer SW-620 cell lines was reported.; format: functional; conditions: Homo sapiens, read-out: Log TGI (converted)
OVCAR-3 = assay: In vitro total growth inhibition against ovarian cancer OVCAR-3 cell lines was reported.; format: functional; conditions: Homo sapiens, read-out: Log TGI (converted)
SK-MEL-2 = assay: In vitro growth inhibition against melanoma SK-MEL-2 cell line was reported.; format: functional; conditions: Homo sapiens
SK-OV-3 = assay: In vitro growth inhibition against ovarian cancer SK-OV-3 cell line was reported.; format: functional; conditions: Homo sapiens
NCI-H322M [22] = assay: Log of molar concentration leading to 50% cell death against non-small-cell lung cancer NCI-H322M cell line was reported; format: functional; conditions: Homo sapiens, read-out: Log LC50 (the source's name) (converted)
SK-MEL-28 [23] = assay: In vitro total growth inhibition against melanoma SK-MEL-28 cell lines was reported.; format: functional; conditions: Homo sapiens, read-out: Log TGI (converted)
RXF 393 = assay: In vitro total growth inhibition against renal cancer RXF 393 cell lines was reported.; format: functional; conditions: Homo sapiens, read-out: Log TGI (converted)
SK-MEL-5 = assay: In vitro growth inhibition against melanoma SK-MEL-5 cell line was reported.; format: functional; conditions: Homo sapiens
PC-3 = assay: In vitro total growth inhibition against prostate cancer PC-3 cell lines was reported.; format: functional; conditions: Homo sapiens, read-out: Log TGI (converted)
Tumor Cell line = assay: In vitro inhibition of 50% cell growth was reported as log of molar concentration for 60 cell lines.; format: functional; conditions: Homo sapiens
MDA-MB-231 [24] = assay: Log of molar concentration leading to 50% cell death against breast cancer MDA-MB-231/ATCC cell line was reported; format: functional; conditions: Homo sapiens, read-out: Log LC50 (the source's name) (converted)
HT-29 [25] = assay: In vitro total growth inhibition against colon cancer HT-29 cell lines was reported.; format: functional; conditions: Homo sapiens, read-out: Log TGI (converted)
MCF7 = assay: In vitro total growth inhibition against breast cancer MCF 7 cell lines was reported.; format: functional; conditions: Homo sapiens, read-out: Log TGI (converted)
U-251 = assay: Log of molar concentration leading to 50% cell death against CNS cancer U251 cell line was reported; format: functional; conditions: Homo sapiens, read-out: Log LC50 (the source's name) (converted)
NCI-H322M [26] = assay: In vitro total growth inhibition against non-small-cell lung cancer NCI-H322M cell lines was reported.; format: functional; conditions: Homo sapiens, read-out: Log TGI (converted)
COLO 205 [27] = assay: In vitro total growth inhibition against colon cancer COLO 205 cell lines was reported.; format: functional; conditions: Homo sapiens, read-out: Log TGI (converted)
A498 [28] = assay: In vitro growth inhibition against renal cancer A498 cell line was reported.; format: functional; conditions: Homo sapiens
MDA-N = assay: In vitro total growth inhibition against breast cancer MDA-N cell lines was reported.; format: functional; conditions: Homo sapiens, read-out: Log TGI (converted)
MDA-MB-231 [29] = assay: In vitro growth inhibition against breast cancer MDA-MB-231/ATCC cell line was reported.; format: functional; conditions: Homo sapiens
KM12 [30] = assay: Log of molar concentration leading to 50% cell death against colon cancer KM12 cell line was reported; format: functional; conditions: Homo sapiens, read-out: Log LC50 (the source's name) (converted)
NCI-H522 [31] = assay: In vitro total growth inhibition against non-small-cell lung cancer NCI-522 cell lines was reported.; format: functional; conditions: Homo sapiens, read-out: Log TGI (converted)
M14 = assay: In vitro total growth inhibition against melanoma M14 cell lines was reported.; format: functional; conditions: Homo sapiens, read-out: Log TGI (converted)
NCI-H226 [32] = assay: In vitro growth inhibition against non-small-cell lung cancer NCI-H226 cell line was reported.; format: functional; conditions: Homo sapiens
ACHN = assay: In vitro total growth inhibition against renal cancer ACHN cell lines was reported.; format: functional; conditions: Homo sapiens, read-out: Log TGI (converted)
SK-MEL-28 [33] = assay: Log of molar concentration leading to 50% cell death against melanoma SK-MEL-28 cell line was reported; format: functional; conditions: Homo sapiens, read-out: Log LC50 (the source's name) (converted)
MDA-MB-435 [34] = assay: In vitro total growth inhibition against breast cancer MDA-MB-435 cell lines was reported.; conditions: Homo sapiens, read-out: Log TGI (converted)
KM12 [35] = assay: In vitro growth inhibition against colon cancer KM12 cell line was reported.; format: functional; conditions: Homo sapiens
HCC 2998 [36] = assay: Log of molar concentration leading to 50% cell death against colon cancer HCC2998 cell line was reported; format: functional; conditions: Homo sapiens, read-out: Log LC50 (the source's name) (converted)
OVCAR-5 = assay: In vitro total growth inhibition against ovarian cancer OVCAR-5 cell lines was reported.; format: functional; conditions: Homo sapiens, read-out: Log TGI (converted)

## Cc1ccc2cccc(NC(=O)c3cc4c(cc3Cl)Sc3nccn3S4(=O)=O)c2n1
SF-268
  GI50: 9.55 µM
HCT-15 [1]
  TGI: 27.5 µM
DU-145 [2]
  CC50: 42.7 µM
A498 [3]
  TGI: 40.7 µM
OVCAR-8 [4]
  TGI: 14.5 µM
NCI-H23
  GI50: 13.8 µM
HOP-62 [5]
  CC50: 39.8 µM
HOP-62 [6]
  GI50: 0.049 µM
UACC-257
  TGI: 26.9 µM
UO-31
  GI50: 1.02 µM
LOX IMVI
  GI50: 5.01 µM
SK-MEL-28 [7]
  GI50: 9.55 µM
SW-620 [8]
  GI50: 7.76 µM
NCI-H46
  TGI: 7.76 µM
SNB-19
  GI50: 10.2 µM
OVCAR-8 [9]
  GI50: 3.8 µM
HCC 2998 [10]
  GI50: 1.82 µM
IGROV-1 [11]
  CC50: 23.4 µM
NCI-H522 [12]
  GI50: 10.5 µM
MDA-MB-231 [13]
  TGI: 24 µM
OVCAR-4
  CC50: 61.7 µM
DU-145 [14]
  GI50: 5.5 µM
NCI-H226 [15]
  TGI: 57.5 µM
BT-549
  TGI: 60.3 µM
IGROV-1 [16]
  TGI: 6.92 µM
MDA-MB-435 [17]
  GI50: 7.94 µM
Malme-3M
  GI50: 17 µM
HCT-15 [18]
  GI50: 4.79 µM
UACC-62
  TGI: 30.9 µM
COLO 205 [19]
  GI50: 17 µM
HT-29 [20]
  GI50: 9.55 µM
SW-620 [21]
  TGI: 23.4 µM
OVCAR-3
  TGI: 11.5 µM
SK-MEL-2
  GI50: 13.2 µM
SK-OV-3
  GI50: 26.9 µM
NCI-H322M [22]
  CC50: 50.1 µM
SK-MEL-28 [23]
  TGI: 26.9 µM
RXF 393
  TGI: 25.1 µM
SK-MEL-5
  GI50: 10.7 µM
PC-3
  TGI: 10.5 µM
Tumor Cell line
  GI50: 97.7 µM
MDA-MB-231 [24]
  CC50: 49 µM
HT-29 [25]
  TGI: 56.2 µM
MCF7
  TGI: 14.8 µM
U-251
  CC50: 38 µM
NCI-H322M [26]
  TGI: 24.5 µM
COLO 205 [27]
  TGI: 30.9 µM
A498 [28]
  GI50: 16.2 µM
MDA-N
  TGI: 91.2 µM
MDA-MB-231 [29]
  GI50: 11.5 µM
KM12 [30]
  CC50: 43.7 µM
NCI-H522 [31]
  TGI: 26.3 µM
M14
  TGI: 22.9 µM
NCI-H226 [32]
  GI50: 15.1 µM
ACHN
  TGI: 33.9 µM
SK-MEL-28 [33]
  CC50: 75.9 µM
MDA-MB-435 [34]
  TGI: 22.9 µM
KM12 [35]
  GI50: 6.61 µM
HCC 2998 [36]
  CC50: 14.5 µM
OVCAR-5
  TGI: 37.2 µM
